Reference: patent US20130040317A1, “CELL LINES COMPRISING ENDOGENOUS TASTE RECEPTORS AND THEIR USES” (THE UNIVERSITY OF NORTH CAROLINA AT CHAPEL HILL, priority 2011, published 2013)
Like-named read-outs stand apart in the source and are kept apart here.

Legend:
Format in all cases: cell-based, human
NCI-H520 cells = assay: FLIPR calcium flux assay, tastant response in NCI-H520 cells
Protocol: (§1) Calcium flux assays were performed as previously described in Strachan et al., “Ribosomal S6 kinase 2 directly phosphorylates the 5-hydroxytryptamine 2A (5-HT2A) serotonin receptor, thereby modulating 5-HT2A signaling,” J Biol Chem 284:5557-5573 (2009). MB9812, NCI-H520 or NCI-H522 cells were trypsinized, counted, and seeded onto clear-bottomed 96 well plates (Greiner Bio-One; Monroe, N.C.) pre-coated with poly-D-lysine, at a density of 7.5×10^5 cells per well. After a 24 hour incubation, media was removed and replaced with a […] assay buffer (20 mM HEPES, 1× HBSS, 2.5 mM probenecid, and Ca^2+ assay dye, pH 7.4) (FLIPR® Calcium Assay Kit; Molecular Device Corp, Sunnyvale, Calif.). After a 1-hour incubation at 37° C., during which the cells were allowed to take up the dye, fluorescence responses of cells were measured with a FLIPRTETRA (Molecular Device Corp; Sunnyvale, Calif.) device upon the addition of variable concentrations of tastant, or vehicle, in the presence of assay buffer (20 mM HEPES, pH 7.4, 1× Hanks Balanced Salt [Invitrogen; Carlsbad, Calif.] and 2.5 mM probenecid). After data acquisition, a subsequent addition of […] was injected into each well, and fluorescence was measured again. Net peak responses to tastants were normalized to net peak responses to thapsigargin. […]

MB9812 cells = assay: FLIPR calcium flux assay, tastant response in MB9812 cells
Protocol: Calcium flux assays were performed as previously described in Strachan et al., “Ribosomal S6 kinase 2 directly phosphorylates the 5-hydroxytryptamine 2A (5-HT2A) serotonin receptor, thereby modulating 5-HT2A signaling,” J Biol Chem 284:5557-5573 (2009). MB9812, NCI-H520 or NCI-H522 cells were trypsinized, counted, and seeded onto clear-bottomed 96 well plates (Greiner Bio-One; Monroe, N.C.) pre-coated with poly-D-lysine, at a density of 7.5×10^5 cells per well. After a 24 hour incubation, media was removed and replaced with a […] assay buffer (20 mM HEPES, 1× HBSS, 2.5 mM probenecid, and Ca^2+ assay dye, pH 7.4) (FLIPR® Calcium Assay Kit; Molecular Device Corp, Sunnyvale, Calif.). After a 1-hour incubation at 37° C., during which the cells were allowed to take up the dye, fluorescence responses of cells were measured with a FLIPRTETRA (Molecular Device Corp; Sunnyvale, Calif.) device upon the addition of variable concentrations of tastant, or vehicle, in the presence of assay buffer (20 mM HEPES, pH 7.4, 1× Hanks Balanced Salt [Invitrogen; Carlsbad, Calif.] and 2.5 mM probenecid). After data acquisition, a subsequent addition of […] was injected into each well, and fluorescence was measured again. Net peak responses to tastants were normalized to net peak responses to thapsigargin. Responses were compared with that of wild-type control MB9812, NCI-H520 or NCI-H522 cells. Statistical and graphical analyses were performed using Prism v. 5.0b (GraphPad Software; La Jolla, Calif.).
MB9812, NCI-H520 and NCI-H522 cells were selected for taste stimulation. The cells were loaded with fluorescent calcium-sensitive dye, treated with a variety of tastants, and monitored for intracellular calcium release with a FLIPR imaging device.

NCI-H522 cells = assay: FLIPR calcium flux assay, tastant response in NCI-H522 cells
Protocol: as §1

With C=C1C[C@@]23CC[C@H]4[C@@](C)(CCC[C@@]4(C)C(=O)O[C@@H]4O[C@H](CO)[C@@H](O)[C@H](O)[C@H]4O)[C@@H]2CC[C@]1(O[C@@H]1O[C@H](CO)[C@@H](O)[C@H](O[C@@H]2O[C@H](CO)[C@@H](O)[C@H](O)[C@H]2O)[C@H]1O[C@@H]1O[C@H](CO)[C@@H](O)[C@H](O)[C@H]1O)C3 [Rebaudioside A] the “cell response to tastant (increase in intracellular calcium, FLIPR calcium flux)” value (NCI-H520 cells) was “respond”.
CC[N+](CC)(CC(=O)Nc1c(C)cccc1C)Cc1ccccc1 [denatonium-B, denatonium benzoate] was tested, and the “cell response to tastant (increase in intracellular calcium, FLIPR calcium flux)” value (NCI-H520 cells) was “respond”, the “cell response to tastant (increase in intracellular calcium, FLIPR calcium flux)” value (MB9812 cells) was “respond” and the “cell response to tastant (increase in intracellular calcium, FLIPR calcium flux)” value (MB9812 cells; listed as denatonium B) was “response”. The “cell response to tastant (increase in intracellular calcium, FLIPR calcium flux)” value (NCI-H522 cells) was “respond”.
With O=C(CO)[C@@H](O)[C@H](O)[C@H](O)CO [fructose] the “cell response to tastant (increase in intracellular calcium, FLIPR calcium flux)” value (MB9812 cells) was “response”.
With OC[C@H]1O[C@@](CO)(O[C@H]2O[C@H](CO)[C@@H](O)[C@H](O)[C@H]2O)[C@@H](O)[C@@H]1O [sucrose] the “cell response to tastant (increase in intracellular calcium, FLIPR calcium flux)” value (MB9812 cells) was “response”.
